For 22 molecules, T/C results are on record in PubChem BioAssay AID330 (DTP/NCI, 2004).

Several values for one entry are separate records, joined by “and”; a condition that tells them apart may be missing. Identical values can stand only once. Toxic doses and inconclusive results are not listed.

The assay concerns P388 leukemia ip, CD2F1 mice, survival T/C. Put plainly: NCI In Vivo Anticancer Drug Screen. Data for tumor model P388 Leukemia (intraperitoneal) in CD2F1 (CDF1) mice. The following applies: endpoint: median survival time, higher = longer survival. A digest of the protocol: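 Mice carrying the transplanted tumor received test compound or vehicle. Survival was recorded in each group, and the value is the treated-group measurement divided by that of the vehicle-treated control group.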

Setting [1] is: dose: 60.0 mg/kg/injection, schedule: Q01DX005 (ip), vehicle: saline with Tween-80.
Setting [2] is: dose: 120.0 mg/kg/injection, schedule: Q01DX005 (ip), vehicle: saline with Tween-80.
The mark [3] stands for this setting: dose: 240.0 mg/kg/injection, schedule: Q01DX005 (ip), vehicle: saline with Tween-80.
Setting [4] is: dose: 50.0 mg/kg/injection, schedule: Q01DX005 (ip), vehicle: Klucel (hydroxypropylcellulose) (HPC).
Setting [5] is: dose: 12.5 mg/kg/injection, schedule: Q01DX009 (ip), vehicle: Klucel (hydroxypropylcellulose) (HPC).
The mark [6] stands for this setting: dose: 25.0 mg/kg/injection, schedule: Q01DX009 (ip), vehicle: Klucel (hydroxypropylcellulose) (HPC).
Setting [7] is: dose: 50.0 mg/kg/injection, schedule: Q01DX009 (ip), vehicle: Klucel (hydroxypropylcellulose) (HPC).
Where [8] appears, read: dose: 100.0 mg/kg/injection, schedule: Q01DX009 (ip), vehicle: Klucel (hydroxypropylcellulose) (HPC).
Setting [9] is: dose: 100.0 mg/kg/injection, schedule: Q04DX003 (ip), vehicle: saline with Tween-80.
The mark [10] stands for this setting: dose: 200.0 mg/kg/injection, schedule: Q04DX003 (ip), vehicle: saline with Tween-80.
[11] abbreviates: dose: 400.0 mg/kg/injection, schedule: Q04DX003 (ip), vehicle: saline with Tween-80.
Setting [12] is: dose: 100.0 mg/kg/injection, schedule: Q04DX003 (ip), vehicle: Klucel (hydroxypropylcellulose) (HPC).
Where [13] appears, read: dose: 200.0 mg/kg/injection, schedule: Q04DX003 (ip), vehicle: Klucel (hydroxypropylcellulose) (HPC).
The mark [14] stands for this setting: dose: 400.0 mg/kg/injection, schedule: Q04DX003 (ip), vehicle: Klucel (hydroxypropylcellulose) (HPC).
The mark [15] stands for this setting: dose: 200.0 mg/kg/injection, schedule: Q01DX005 (ip), vehicle: Klucel (hydroxypropylcellulose) (HPC).
Setting [16] is: dose: 200.0 mg/kg/injection, schedule: Q01DX009 (ip), vehicle: Klucel (hydroxypropylcellulose) (HPC).

Turning to `COc1cc([N+](=O)[O-])ccc1C(=O)Nc1c2ccccc2nc2ccccc12`, the T/C (dose: 25.0 mg/kg/injection, schedule: Q01DX005 (ip), vehicle: saline with Tween-80) was 95 % of control; the T/C (dose: 50.0 mg/kg/injection, schedule: Q01DX005 (ip), vehicle: saline with Tween-80) is 107 % of control; the T/C (dose: 100.0 mg/kg/injection, schedule: Q01DX005 (ip), vehicle: saline with Tween-80) was 92 % of control; the T/C (dose: 200.0 mg/kg/injection, schedule: Q01DX005 (ip), vehicle: saline with Tween-80) is 92 % of control.

Turning to `CC12C(=O)NC(c3ccncc3)(c3ccccc31)C1C(=O)N(c3ccccc3)C(=O)C12` (stereo unspecified), the T/C is 96 % of control under setting [1], 94 % of control under setting [2] and 94 % of control under setting [3].

Take `Cc1cc2c(c(=O)o1)C(C)CC(c1c(O)cc(C)oc1=O)O2` (stereo unspecified): the T/C was 114 % of control under setting [1], 108 % of control under setting [2] and 103 % of control under setting [3].

In the case of `COC(=O)C1NC(C)(C(=O)OC)C2C(=O)NC(=O)C12` (stereo unspecified), the T/C was 95 % of control (dose: 100.0 mg/kg/injection, schedule: Q04DX002 (ip), vehicle: Klucel (hydroxypropylcellulose) (HPC)); 93 % of control (dose: 200.0 mg/kg/injection, schedule: Q04DX002 (ip), vehicle: Klucel (hydroxypropylcellulose) (HPC)); 88 % of control (dose: 400.0 mg/kg/injection, schedule: Q04DX002 (ip), vehicle: Klucel (hydroxypropylcellulose) (HPC)).

Take `COC(=O)C1=CCC[C@H]2C1(C)CCC(C)C21CC(c2ccoc2)OC1=O` (stereo partly specified): the T/C by setting is: (dose: 3.5 mg/kg/injection, schedule: Q01DX005 (ip), vehicle: Klucel (hydroxypropylcellulose) (HPC)) 106 % of control; (dose: 7.0 mg/kg/injection, schedule: Q01DX005 (ip), vehicle: Klucel (hydroxypropylcellulose) (HPC)) 91 % of control; (dose: 14.0 mg/kg/injection, schedule: Q01DX005 (ip), vehicle: Klucel (hydroxypropylcellulose) (HPC)) 95 % of control; (dose: 28.0 mg/kg/injection, schedule: Q01DX005 (ip), vehicle: Klucel (hydroxypropylcellulose) (HPC)) 91 % of control; under setting [4], 92 % of control.

Regarding `Nc1nc(N)nc(Cl)n1`, the T/C under setting [5] is 100 % of control and 91 % of control; the T/C under setting [6] is 101 % of control and 104 % of control; the T/C under setting [7] was 123 % of control and 91 % of control; the T/C under setting [8] was 104 % of control and 96 % of control.

`O/N=C\c1ccccc1P(c1ccccc1/C=N\O)c1ccccc1/C=N\O`: the T/C is, setting by setting: (dose: 100.0 mg/kg/injection, schedule: Q01DX001 (ip), vehicle: saline with Tween-80) 87 % of control; (dose: 200.0 mg/kg/injection, schedule: Q01DX001 (ip), vehicle: saline with Tween-80) 89 % of control.

For `CC=C(/C(=C/C)c1ccc(O)cc1)c1ccc(O)cc1`, the T/C was 120 % of control (dose: 66.0 mg/kg/injection, schedule: Q01DX009 (ip), vehicle: saline with Tween-80); 100 % of control under setting [9]; 100 % of control under setting [10]; 90 % of control under setting [11].

Take `CN(C)C(=O)C1CCC1`: the T/C was 95 % of control under setting [9], 100 % of control under setting [10] and 100 % of control under setting [11].

As for `S=c1[nH]c(Cl)c(Cl)cc1Cl`, the T/C was 98 % of control (dose: 50.0 mg/kg/injection, schedule: Q01DX009 (ip), vehicle: saline with Tween-80); 105 % of control (dose: 100.0 mg/kg/injection, schedule: Q01DX009 (ip), vehicle: saline with Tween-80); 99 % of control (dose: 200.0 mg/kg/injection, schedule: Q01DX009 (ip), vehicle: saline with Tween-80).

For the molecule `Cc1ccc(S(=O)(=O)N/N=C/c2ccsc2)cc1`, the T/C was 92 % of control under setting [12], 106 % of control under setting [13] and 100 % of control under setting [14].

With `N#CCCP(=O)(O)CO`, the T/C (dose: 50.0 mg/kg/injection, schedule: Q01DX009 (ip), vehicle: saline) was 106 % of control; the T/C (dose: 100.0 mg/kg/injection, schedule: Q01DX009 (ip), vehicle: saline) is 100 % of control; the T/C (dose: 200.0 mg/kg/injection, schedule: Q01DX009 (ip), vehicle: saline) is 92 % of control.

For `CN1c2cc3ccccc3cc2N(C)c2cc3ccccc3cc21`, the T/C runs as follows: under setting [4], 90 % of control; under setting [15], 88 % of control.

On to `CC(=O)NC(=O)CCCCCCC(=O)NC(C)=O`, for which the T/C under setting [4] is 88 % of control.

On to `Clc1ccc(/C=C/c2ccc3ccccc3n2)cc1`, for which the T/C is 109 % of control under setting [7]; 102 % of control under setting [8]; 107 % of control under setting [16]; 93 % of control (dose: 400.0 mg/kg/injection, schedule: Q01DX009 (ip), vehicle: Klucel (hydroxypropylcellulose) (HPC)).

For `Cc1nnc(N/N=C/c2ccccc2)n1/N=C\c1ccccc1`, the T/C runs as follows: under setting [12], 101 % of control; under setting [13], 100 % of control; under setting [14], 105 % of control.

For `CCN(CC)CCCC(Nc1c2ccc(Cl)cc2nc2ccc(OC)cc12)c1cccc2ccccc12` (stereo unspecified), the T/C was 103 % of control (dose: 6.0 mg/kg/injection, schedule: Q01DX005 (ip), vehicle: Klucel (hydroxypropylcellulose) (HPC)); 106 % of control (dose: 12.0 mg/kg/injection, schedule: Q01DX005 (ip), vehicle: Klucel (hydroxypropylcellulose) (HPC)); 106 % of control (dose: 25.0 mg/kg/injection, schedule: Q01DX005 (ip), vehicle: Klucel (hydroxypropylcellulose) (HPC)).

`O=C1C=CC2(CC=CCC2)CC1` (stereo unspecified): the T/C by setting is: (dose: 6.25 mg/kg/injection, schedule: Q01DX009 (ip), vehicle: Klucel (hydroxypropylcellulose) (HPC)) 110 % of control; (dose: 12.5 mg/kg/injection, schedule: Q01DX008 (ip), vehicle: Klucel (hydroxypropylcellulose) (HPC)) 101 % of control; under setting [5], 108 % of control; (dose: 25.0 mg/kg/injection, schedule: Q01DX008 (ip), vehicle: Klucel (hydroxypropylcellulose) (HPC)) 100 % of control; under setting [6], 100 % of control; under setting [7], 121 % of control. Also, the T/C was 109 % of control under setting [8] and 110 % of control under setting [16].

In the case of `COc1cccc2c1C(=N)c1c(O)c3c(c(O)c1C2=O)C[C@@](O)(C(O)CO)C[C@@H]3OC1CC(N2CCOCC2)C(O)C(C)O1` (stereo partly specified), the T/C (dose: 3.12 mg/kg/injection, schedule: Q04DX003 (ip), vehicle: water) is 112 % of control and 115 % of control; the T/C (dose: 6.25 mg/kg/injection, schedule: Q04DX003 (ip), vehicle: water) is 118 % of control; the T/C (dose: 12.5 mg/kg/injection, schedule: Q04DX003 (ip), vehicle: water) was 108 % of control and 120 % of control; the T/C (dose: 18.7 mg/kg/injection, schedule: Q04DX003 (ip), vehicle: water) was 105 % of control; the T/C (dose: 50.0 mg/kg/injection, schedule: Q04DX003 (ip), vehicle: water) is 115 % of control and 161 % of control and 221 % of control; the T/C (dose: 75.0 mg/kg/injection, schedule: Q04DX003 (ip), vehicle: water) was 118 % of control.

As to `CCN(CC)C(C)(C)C(=O)/C=C/c1ccc(Cl)c(Cl)c1`, the T/C by setting is: (dose: 60.0 mg/kg/injection, schedule: Q01DX005 (ip), vehicle: saline) 102 % of control; (dose: 120.0 mg/kg/injection, schedule: Q01DX005 (ip), vehicle: saline) 101 % of control; (dose: 240.0 mg/kg/injection, schedule: Q01DX005 (ip), vehicle: saline) 100 % of control.

Take `CC(C)CC(=O)CC(=O)C(C)(C)C.CC(C)CC(=O)CC(=O)C(C)(C)C.CC(C)CC(=O)CC(=O)C(C)(C)C.[Cr]`: the T/C is 97 % of control (dose: 50.0 mg/kg/injection, schedule: Q01DX009 (ip), vehicle: distilled water + alcohol); 107 % of control (dose: 100.0 mg/kg/injection, schedule: Q01DX009 (ip), vehicle: distilled water + alcohol); 103 % of control (dose: 200.0 mg/kg/injection, schedule: Q01DX009 (ip), vehicle: distilled water + alcohol).

With `CCC1=NOC(n2c3ccccc3c3ccccc32)C1` (stereo unspecified), the T/C is 100 % of control under setting [4]; 100 % of control (dose: 100.0 mg/kg/injection, schedule: Q01DX005 (ip), vehicle: Klucel (hydroxypropylcellulose) (HPC)); 95 % of control under setting [15].
